Key:
Type in all cases: in vivo
[1] = system: rice leafroller (Cnaphalocrocis medinalis); experiment: Insecticidal effect on rice leafroller (Test Example 3); conditions: 500 ppm, 25° C., humidity 70%; for Insecticidal effect, Test Example 3: rice lamina immersed; for Insecticidal effect, Test Example 3 / Insecticidal effect on rice leafroller (Test Example 3), judged grade: four days after inoculation; for Insecticidal effect on rice leafroller (Test Example 3), judged grade / Insecticidal effect (Test Example 3), judged from mortality: rice lamina dip; for Insecticidal effect on rice leafroller (Test Example 3), judged grade: third-instar larvae; for Insecticidal effect (Test Example 3), judged from mortality: 4 days after inoculation
Outline: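 Groups of 10 third-instar larvae, in triplicate, are placed on air-dried lamina resting on wet filter paper. Incubation runs four days at 25° C with 70% humidity before survivors and dead are tallied.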

[2] = system: common cutworm (Spodoptera Litura); experiment: Insecticidal effect on common cutworm (Test Example 2); conditions: 500 ppm, 25° C.; for Insecticidal effect, Test Example 2: cabbage leaf immersed; for Insecticidal effect, Test Example 2 / Insecticidal effect on common cutworm (Test Example 2), judged grade: eight days after inoculation; for Insecticidal effect on common cutworm (Test Example 2), judged grade / Insecticidal effect (Test Example 2), judged from mortality: cabbage leaf dip; for Insecticidal effect on common cutworm (Test Example 2), judged grade: second-instar larvae; for Insecticidal effect (Test Example 2), judged from mortality: 8 days after inoculation
Outline: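 Insecticidal effect was rated from percent mortality of second-instar larvae exposed to air-dried treatment at 25° C for 8 days.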

[3] = system: diamondback moth (Plutella xylostella); experiment: Insecticidal effect on diamondback moth (Test Example 1); conditions: for Insecticidal effect, Test Example 1 / Insecticidal effect (Test Example 1), judged from mortality: diamondback moth; for Insecticidal effect on diamondback moth (Test Example 1), judged grade: mortality judged according to the criterion shown in Test Example 1; for Insecticidal effect (Test Example 1), judged from mortality: judged by the criterion of Test Example 1
Outline: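 Chinese cabbage seedlings carrying eggs laid by released adult moths were immersed in treatment, air-dried and held at 25° C. Hatched insects were counted six days after immersion, and mortality was calculated and scored against a fixed criterion. Three replicate groups of 10 insects were used.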

[4] = rice leafroller third-instar larvae
[5] = common cutworm second-instar larvae
[6] = mortality judged by criterion of Test Example 1
[7] = third-instar larvae of rice leafroller
[8] = second-instar larvae of common cutworm
[9] = judged by the mortality criterion of Test Example 1

## CC(C)(C)NC(=O)c1c(I)cccc1C(=O)Nc1ccc(C(O)(C(F)(F)F)C(F)(F)F)cc1 [compound 1054]
[1]; [4]
  Insecticidal effect, Test Example 3: A (100)
[2]; [5]
  Insecticidal effect, Test Example 2: A (100)
[3]; [6]
  Insecticidal effect, Test Example 1: A (100)

## Cc1cc(Sc2ccc(Cl)cc2)ccc1NC(=O)c1cccc([N+](=O)[O-])c1C(=O)NC(C)C [compound 727]
[1]
  Insecticidal effect on rice leafroller (Test Example 3), judged grade: A (100)
[2]
  Insecticidal effect on common cutworm (Test Example 2), judged grade: B (99-90)
[3]
  Insecticidal effect on diamondback moth (Test Example 1), judged grade: A (100)

## CC(C)NC(=O)c1ccccc1C(=O)Nc1ccc(C(O)(C(F)(F)F)C(F)(F)F)cc1 [compound 978]
[1]; [4]
  Insecticidal effect, Test Example 3: A (100)
[2]; [5]
  Insecticidal effect, Test Example 2: C (89-80)
[3]; [6]
  Insecticidal effect, Test Example 1: A (100)

## Cc1cc(OC(F)(F)C(F)OC(F)(F)F)ccc1NC(=O)c1cccc(I)c1C(=O)NC(C)C (stereo not drawn) [compound 395]
[1]; [7]
  Insecticidal effect, Test Example 3: A (100)
[2]; [8]
  Insecticidal effect, Test Example 2: A (100)
[3]; [9]
  Insecticidal effect, Test Example 1: A (100)

## Cc1cc(OC(F)(F)F)ccc1NC(=O)c1cccc(I)c1C(=O)NC(C)C [compound 386]
[1]; [7]
  Insecticidal effect, Test Example 3: A (100)
[2]; [8]
  Insecticidal effect, Test Example 2: A (100)
[3]; [9]
  Insecticidal effect, Test Example 1: A (100)

## CC(C)NC(=O)c1cccc(F)c1C(=O)Nc1ccc(OC(F)(F)C(F)OC(F)(F)C(F)(F)C(F)(F)F)cc1 (stereo not drawn) [compound 538]
[1]
  Insecticidal effect on rice leafroller (Test Example 3), judged grade: A (100)
[2]
  Insecticidal effect on common cutworm (Test Example 2), judged grade: A (100)
[3]
  Insecticidal effect on diamondback moth (Test Example 1), judged grade: A (100)

## CC(C)NC(=O)c1c(I)cccc1C(=O)Nc1ccc(C(F)(C(F)(F)F)C(F)(F)F)cc1Cl [compound 1722]
[1]; [7]
  Insecticidal effect (Test Example 3), judged from mortality: A (100)
[2]; [8]
  Insecticidal effect (Test Example 2), judged from mortality: A (100)
[3]
  Insecticidal effect (Test Example 1), judged from mortality: A (100)

## Cc1cc(OC(F)(F)C(F)Cl)ccc1NC(=O)c1cccc(F)c1C(=O)NC(C)C (stereo not drawn) [compound 513]
[1]
  Insecticidal effect on rice leafroller (Test Example 3), judged grade: A (100)
[2]
  Insecticidal effect on common cutworm (Test Example 2), judged grade: A (100)
[3]
  Insecticidal effect on diamondback moth (Test Example 1), judged grade: A (100)

## CC(C)NC(=O)c1ccccc1C(=O)Nc1ccc(Cl)cc1Cl [compound 42]
[1]; [7]
  Insecticidal effect, Test Example 3: A (100)
[2]; [8]
  Insecticidal effect, Test Example 2: D (79-50)
[3]; [9]
  Insecticidal effect, Test Example 1: A (100)

## Cc1ccc(NC(=O)c2cccc(Br)c2C(=O)NC(C)C)c(C)c1OC(F)F [compound 284]
[1]; [7]
  Insecticidal effect, Test Example 3: A (100)
[2]; [8]
  Insecticidal effect, Test Example 2: A (100)
[3]; [9]
  Insecticidal effect, Test Example 1: A (100)

## CC(C)NC(=O)c1c(I)cccc1C(=O)Nc1ccc(C(F)(F)C(F)(F)F)cc1 [compound 895]
[1]
  Insecticidal effect on rice leafroller (Test Example 3), judged grade: A (100)
[2]
  Insecticidal effect on common cutworm (Test Example 2), judged grade: A (100)
[3]
  Insecticidal effect on diamondback moth (Test Example 1), judged grade: A (100)

## CC(C)NC(=O)c1cccc(I)c1C(=O)Nc1ccc(C(F)(F)C(F)(F)C(F)(F)F)cc1Cl [compound 468]
[1]
  Insecticidal effect on rice leafroller (Test Example 3), judged grade: B (99-90)
[2]
  Insecticidal effect on common cutworm (Test Example 2), judged grade: A (100)
[3]
  Insecticidal effect on diamondback moth (Test Example 1), judged grade: A (100)

## CCCNC(=O)c1c(I)cccc1C(=O)Nc1ccc(C(F)(C(F)(F)F)C(F)(F)F)cc1C [compound 1075]
[1]; [4]
  Insecticidal effect, Test Example 3: A (100)
[2]; [5]
  Insecticidal effect, Test Example 2: A (100)
[3]; [6]
  Insecticidal effect, Test Example 1: A (100)

## CCC(COC)NC(=O)c1c(I)cccc1C(=O)Nc1ccc(C(F)(F)C(F)(F)F)cc1C (stereo not drawn) [compound 1013]
[1]; [4]
  Insecticidal effect, Test Example 3: A (100)
[2]; [5]
  Insecticidal effect, Test Example 2: A (100)
[3]; [6]
  Insecticidal effect, Test Example 1: A (100)

## Cc1cc(C(F)(C(F)(F)F)C(F)(F)F)ccc1NC(=O)c1cccc(I)c1C(=O)NC(C)C [compound 374]
[1]; [7]
  Insecticidal effect, Test Example 3: A (100)
[2]; [8]
  Insecticidal effect, Test Example 2: A (100)
[3]; [9]
  Insecticidal effect, Test Example 1: A (100)

## Cc1cc(OC(F)(F)C(F)C(F)(F)F)ccc1NC(=O)c1ccccc1C(=O)NC(C)C (stereo not drawn) [compound 65]
[1]; [7]
  Insecticidal effect, Test Example 3: A (100)
[2]; [8]
  Insecticidal effect, Test Example 2: A (100)
[3]; [9]
  Insecticidal effect, Test Example 1: A (100)

## Cc1ccc(F)cc1NC(=O)c1cccc([N+](=O)[O-])c1C(=O)NCCF [compound 862]
[1]
  Insecticidal effect on rice leafroller (Test Example 3), judged grade: D (79-50)
[2]
  Insecticidal effect on common cutworm (Test Example 2), judged grade: D (79-50)
[3]
  Insecticidal effect on diamondback moth (Test Example 1), judged grade: A (100)

## Cc1cc(Oc2ncccn2)ccc1NC(=O)c1cccc(I)c1C(=O)NC(C)C [compound 1618]
[1]; [7]
  Insecticidal effect (Test Example 3), judged from mortality: A (100)
[2]; [8]
  Insecticidal effect (Test Example 2), judged from mortality: C (89-80)
[3]
  Insecticidal effect (Test Example 1), judged from mortality: A (100)

## Cc1c(NC(=O)c2cccc(I)c2C(=O)NC(C)C)cccc1C(F)(F)F [compound 370]
[1]; [7]
  Insecticidal effect, Test Example 3: A (100)
[2]; [8]
  Insecticidal effect, Test Example 2: A (100)
[3]; [9]
  Insecticidal effect, Test Example 1: A (100)

## CCc1cc(OC(F)(F)F)ccc1NC(=O)c1cccc(I)c1C(=O)NC(C)C [compound 1210]
[1]; [4]
  Insecticidal effect, Test Example 3: A (100)
[2]; [5]
  Insecticidal effect, Test Example 2: A (100)
[3]; [6]
  Insecticidal effect, Test Example 1: A (100)

## CC(C)NC(=O)c1c(I)cccc1C(=O)Nc1ccc2c(c1)OC(F)(F)C(F)(F)O2 [compound 1003]
[1]; [4]
  Insecticidal effect, Test Example 3: A (100)
[2]; [5]
  Insecticidal effect, Test Example 2: A (100)
[3]; [6]
  Insecticidal effect, Test Example 1: A (100)

## Cc1cc(C(F)(F)C(F)(F)F)ccc1NC(=O)c1cccc(Cl)c1C(=O)NC(C)CO (stereo not drawn) [compound 1298]
[1]; [4]
  Insecticidal effect, Test Example 3: A (100)
[2]; [5]
  Insecticidal effect, Test Example 2: A (100)
[3]; [6]
  Insecticidal effect, Test Example 1: A (100)

## Cc1cc(OC(F)(F)Br)ccc1NC(=O)c1cccc(I)c1C(=O)NC(C)C [compound 389]
[1]; [7]
  Insecticidal effect, Test Example 3: A (100)
[2]; [8]
  Insecticidal effect, Test Example 2: A (100)
[3]; [9]
  Insecticidal effect, Test Example 1: A (100)

## Cc1cc(C(F)(F)C(F)(Cl)Cl)ccc1NC(=O)c1ccccc1C(=O)NC(C)C [compound 64]
[1]; [7]
  Insecticidal effect, Test Example 3: A (100)
[2]; [8]
  Insecticidal effect, Test Example 2: B (99-90)
[3]; [9]
  Insecticidal effect, Test Example 1: A (100)

## CC(C)NC(=O)c1c(Cl)cccc1C(=O)Nc1ccc2c(c1Cl)OC(F)(F)C(F)(F)O2 [compound 1642]
[1]; [7]
  Insecticidal effect (Test Example 3), judged from mortality: A (100)
[2]; [8]
  Insecticidal effect (Test Example 2), judged from mortality: A (100)
[3]
  Insecticidal effect (Test Example 1), judged from mortality: A (100)

## CC(C)NC(=O)c1c(I)cccc1C(=O)Nc1cc2c(cc1Cl)OC(F)(F)O2 [compound 1622]
[1]; [7]
  Insecticidal effect (Test Example 3), judged from mortality: A (100)
[2]; [8]
  Insecticidal effect (Test Example 2), judged from mortality: A (100)
[3]
  Insecticidal effect (Test Example 1), judged from mortality: A (100)

## CC(C)NC(=O)c1c(I)cccc1C(=O)Nc1ccc2oc(C(F)(F)C(F)(F)C(F)(F)F)nc2c1 [compound 1637]
[1]; [7]
  Insecticidal effect (Test Example 3), judged from mortality: A (100)
[2]; [8]
  Insecticidal effect (Test Example 2), judged from mortality: A (100)
[3]
  Insecticidal effect (Test Example 1), judged from mortality: A (100)

## CCN(CC)C(=O)c1c(Cl)cccc1C(=O)Nc1ccc(C(F)(F)F)cc1 [compound 1545]
[1]; [7]
  Insecticidal effect (Test Example 3), judged from mortality: A (100)
[2]; [8]
  Insecticidal effect (Test Example 2), judged from mortality: D (79-50)
[3]
  Insecticidal effect (Test Example 1), judged from mortality: A (100)

## Cc1cc(Oc2cccc(C(F)(F)F)c2)ccc1NC(=O)c1c(Br)cccc1C(=O)NC(C)C [compound 334]
[1]; [7]
  Insecticidal effect, Test Example 3: C (89-80)
[2]; [8]
  Insecticidal effect, Test Example 2: C (89-80)
[3]; [9]
  Insecticidal effect, Test Example 1: A (100)

## Cc1ccccc1CNC(=O)c1c(I)cccc1C(=O)Nc1ccc(C(F)(F)C(F)(F)F)cc1C [compound 1404]
[1]; [4]
  Insecticidal effect, Test Example 3: A (100)
[2]; [5]
  Insecticidal effect, Test Example 2: C (89-80)
[3]; [6]
  Insecticidal effect, Test Example 1: A (100)

## CC(=O)c1ccc(NC(=O)c2cccc(Cl)c2C(=O)NC(C)C)cc1 [compound 109]
[1]; [7]
  Insecticidal effect, Test Example 3: C (89-80)
[2]; [8]
  Insecticidal effect, Test Example 2: A (100)
[3]; [9]
  Insecticidal effect, Test Example 1: A (100)
